The OligoGym collection
“And” between values parts separate entries of the source, which are not always exact repeats. Equal values may be shown once. After the bases stand the sugars from the 5' end (letter, count) and the backbone: PS all phosphorothioate, else s phosphorothioate and o phosphodiester by linkage. Methylation of C is not given here. e = 2'-O-(2-methoxyethyl) (MOE); k = constrained ethyl (cEt); d = 2'-deoxy (DNA)

Target: APOL1
Details: ASO

Row | Sequence | target mRNA inhibition (A431, 2 µM) [%] | target mRNA inhibition (A431, 0.0625 µM) | target mRNA inhibition (A431, 0.25 µM) | target mRNA inhibition (A431, 1 µM) | other results
1 | GTTCAAAAGCAGCATT (sugars kkddddkekekkdddd, PS) | 34 |  |  |  | 
2 | ACGCAATGCTGACTTG (sugars k2 d4 e3 k2 d5, PS) | 87 |  |  |  | 
3 | GTTATATTTGATCCTC (sugars kkkddddkekeddddd, PS) | 98 | 65% | 88% | 96% | target mRNA inhibition (A431, 0.0156 µM): 32%
4 | ATGTCTCAAACTCCAC (sugars k4 d9 k3, PS) |  | 29% | 63% | 83% | 
5 | TGGAAATGCCAAAGTC (sugars k4 d9 k3, PS) |  | 62% | 88% | 96% | 
6 | GTATTTCTTGATGTGG (sugars kkkddddkekekdddd, PS) | 73 |  |  |  | 
7 | CAAGGTTGTCCAGAGC (sugars k4 d9 k3, PS) |  | 31% | 58% | 64% | 
8 | GTCCTTACTGCAGTTT (sugars k4 d9 k3, PS) |  | 60% | 83% | 93% | 
9 | GTTCTAACTCTTGGGC (sugars kkddddkekekddddd, PS) | 61 |  |  |  | 
10 | TTCAGAATTTCCACTA (sugars kddddkekekeddddd, PS) | 62 |  |  |  | 
11 | TTTAGAAAGGACACGG (sugars k4 d9 k3, PS) |  | 42% | 73% | 90% | 
12 | TCTCATGGTACAGGAG (sugars kkddddkekekkdddd, PS) | 26 |  |  |  | 
13 | AAGATTGGCTCTGGCT (sugars k2 d4 e4 k2 d4, PS) | 55 |  |  |  | 
14 | ATGCGGTACTGACTGA (sugars k4 d9 k3, PS) |  | 49% | 69% | 88% | 
15 | TGGTTCAAAAGCAGCA (sugars k4 d9 k3, PS) |  | 60% | 84% | 94% | 
16 | ACTGAGGGTATATGAA (sugars k4 d9 k3, PS) |  | 22% | 40% | 58% | 
17 | GAAGATTGGCTCTGGC (sugars kkdddddkekeddddd, PS) | 70 |  |  |  | 
18 | GAAGCTTTAAACTCAG (sugars k4 d9 k3, PS) |  | 41% | 65% | 82% | 
19 | CTTTAAACTCAGGTGA (sugars kkddddkekekddddd, PS) | 82 |  |  |  | 
20 | CTTTATACCAGTGTCT (sugars kddddkekekeddddd, PS) | 92 |  |  |  | 
21 | CGCAATGCTGACTTGG (sugars k2 d4 e4 k2 d4, PS) | 68 |  |  |  | 
22 | CTTTATACCAGTGTCT (sugars kkkddddkekekdddd, PS) | 76 |  |  |  | 
23 | ATTCAGAATTTCCACT (sugars kkddddekekeddddd, PS) | 87 |  |  |  | 
24 | TTCTATTAGAGGGCTA (sugars k4 d9 k3, PS) |  | 51% and 40% | 81% and 72% | 92% and 84% and 98% | target mRNA inhibition (A431, 0.04 µM): 68%
25 | CTTTAAACTCAGGTGA (sugars kdddddkekekddddd, PS) | 77 |  |  |  | 
26 | ACACATCATTGGGTTA (sugars kkdddddkekeddddd, PS) | 72 |  |  |  | 

Row | Sequence | target mRNA inhibition (A431, 2 µM) [%] | target mRNA inhibition (A431, 0.0625 µM) | target mRNA inhibition (A431, 0.25 µM) | target mRNA inhibition (A431, 1 µM) | other results
27 | GCTTTAAACTCAGGTG (sugars kddddkekekeddddd, PS) | 67 |  |  |  | 
28 | GGAATTATGGAATTGC (sugars kddddkekekeddddd, PS) | 88 |  |  |  | 
29 | TATCAGATGGGTACTT (sugars k3 d4 k3 e1 d5, PS) | 69 |  |  |  | 
30 | GGAATTATGGAATTGC (sugars kdddddkekekddddd, PS) | 92 |  |  |  | 
31 | GGGTCAAAAGCGATGG (sugars k4 d9 k3, PS) |  | 50% | 79% | 88% | 
32 | GTTATGAAATTATTGG (sugars k2 d4 e3 k2 d5, PS) | 54 |  |  |  | 
33 | ATCAGATGGGTACTTC (sugars k3 d4 k3 e1 d5, PS) | 88 |  |  |  | 
34 | ATGCTAATTTTCTGAC (sugars k2 d4 e3 k2 d5, PS) | 88 |  |  |  | 
35 | CACTTGAGTCATTTGC (sugars k4 d9 k3, PS) |  | 37% | 73% | 86% | 
36 | GAGTATTGTTTTTGTG (sugars kdddddkekekddddd, PS) | 90 |  |  |  | 
37 | AGCAGCCACGAATCCG (sugars k4 d9 k3, PS) |  | 40% | 66% | 63% | 
38 | AATTATGGAATTGCAG (sugars kddddkekekeddddd, PS) | 55 |  |  |  | 
39 | GAAGATTGGCTCTGGC (sugars kkddddkdkdkddddd, PS) | 79 |  |  |  | 
40 | TTATGAAATTATTGGT (sugars k3 d4 k3 e1 d5, PS) | 85 |  |  |  | 
41 | CGTGTTATATTTGATC (sugars kkddddkekekddddd, PS) | 88 |  |  |  | 
42 | TGTTCTAACTCTTGGG (sugars k4 d9 k3, PS) |  | 75% | 88% | 94% | 
43 | GGCCGTGTCACCCTAA (sugars k4 d9 k3, PS) |  | 51% | 45% | 52% | 
44 | TGTTATATTTGATCCT (sugars kkddddekekeddddd, PS) | 94 | 41% | 71% | 85% | target mRNA inhibition (A431, 0.0156 µM): 17%
45 | CGTCAATATATTCTTT (sugars kddddkekekeddddd, PS) | 96 | 46% | 78% | 90% | target mRNA inhibition (A431, 0.0156 µM): 0%
46 | GGAATTATGGAATTGC (sugars kkddddkekekkdddd, PS) | 74 |  |  |  | 
47 | TGAGTATTGTTTTTGT (sugars kkkddddkekeddddd, PS) | 92 | 47% | 74% | 90% | target mRNA inhibition (A431, 0.0156 µM): 16%
48 | AGTTTTGTAAGTGCAA (sugars k2 d4 e4 k2 d4, PS) | 94 | 23% | 80% | 91% | target mRNA inhibition (A431, 0.0156 µM): 4%
49 | TTTGGGTCAAAAGCGA (sugars k4 d9 k3, PS) |  |  | 66% and 85% | 83% and 93% | 
50 | GTGAGTATTGTTTTTG (sugars kkddddkekekddddd, PS) | 88 |  |  |  | 
51 | ACACATCATTGGGTTA (sugars k3 d4 k3 e1 d5, PS) | 59 |  |  |  | 
52 | AAGTATTGCCAGCTAA (sugars kkddddkdkdkddddd, PS) | 70 |  |  |  | 

Row | Sequence | target mRNA inhibition (A431, 2 µM) [%] | target mRNA inhibition (A431, 0.0625 µM) | target mRNA inhibition (A431, 0.25 µM) | target mRNA inhibition (A431, 1 µM) | other results
53 | GTTCAAAAGCAGCATT (sugars k4 d9 k3, PS) |  |  |  |  | target mRNA inhibition (A431, 0.04 µM): 15% and 11%
54 | CCTTAATGTAAATTCC (sugars k4 d9 k3, PS) |  | 32% | 61% | 80% | 
55 | GCGATTGTCTTGTTTT (sugars k4 d9 k3, PS) |  | 64% and 78% | 87% and 89% | 93% | 
56 | CTTTATACCAGTGTCT (sugars k3 d4 k3 e1 d5, PS) | 95 | 54% | 78% | 91% | target mRNA inhibition (A431, 0.0156 µM): 19%
57 | GACTTGTTTTATGGAG (sugars k4 d9 k3, PS) |  | 75% | 88% | 92% | 
58 | ATTCTATTAGAGGGCT (sugars k2 d4 e3 k2 d5, PS) | 70 |  |  |  | 
59 | TTATGAAATTATTGGT (sugars kkddddkdkdkddddd, PS) | 47 |  |  |  | 
60 | CACTTTACATGCACGA (sugars k4 d9 k3, PS) |  | 26% | 65% | 85% | 
61 | TTTATACCAGTGTCTT (sugars kkddddkekekddddd, PS) | 89 |  |  |  | 
62 | TATTCTCATGGTACAG (sugars kkkddddkekeddddd, PS) | 68 |  |  |  | 
63 | GAGTATTGTTTTTGTG (sugars k2 d4 e3 k2 d5, PS) | 97 | 72% | 91% | 96% | target mRNA inhibition (A431, 0.0156 µM): 38%
64 | GAAGCTTTAAACTCAG (sugars kkkddddkekekdddd, PS) | 47 |  |  |  | 
65 | GTATTGCCAGCTAAGG (sugars k4 d9 k3, PS) |  | 56% | 85% | 94% | 
66 | CTGTTCTAACTCTTGG (sugars kkkddddkekekdddd, PS) | 88 |  |  |  | 
67 | CCAGCAAAGACAAGAA (sugars k4 d9 k3, PS) |  | 9% and 0% | 49% and 30% | 64% and 55% and 50% | 
68 | AACGCAATGCTGACTT (sugars k3 d4 k3 e1 d5, PS) | 91 | 24% | 54% | 80% | target mRNA inhibition (A431, 0.0156 µM): 3%
69 | CAGTTTTGTAAGTGCA (sugars k3 d5 k3 d5, PS) | 97 |  |  |  | 
70 | ATTGGCTCAGTGACCC (sugars k4 d9 k3, PS) |  |  | 72% and 76% | 88% and 86% | 
71 | TATATTTGATCCTCAA (sugars kdddddkekekddddd, PS) | 89 |  |  |  | 
72 | ATATCAGATGGGTACT (sugars kkkddddkekekdddd, PS) | 28 |  |  |  | 
73 | AAGTATTGCCAGCTAA (sugars kkddddkekekddddd, PS) | 62 |  |  |  | 
74 | CATTCAGAATTTCCAC (sugars kdddddkekekddddd, PS) | 67 |  |  |  | 
75 | AAGTATTGCCAGCTAA (sugars k3 d5 k3 d5, PS) | 90 |  |  |  | 
76 | ACATCATTGGGTTATG (sugars kkddddkekekkdddd, PS) | 70 |  |  |  | 
77 | ATTTCTTGATGTGGTG (sugars kkddddkekekkdddd, PS) | 69 |  |  |  | 
78 | AAGGAGTTGCTGAAAC (sugars k4 d9 k3, PS) |  | 32% | 48% | 63% | 
